Like-named read-outs stand apart in the source and are kept apart here.
Assays:
[1] = Cytotoxicity test by MTT assay; format: cell-based, African green monkey (Cercopithecus aethiops); conditions: African green monkey (Cercopithecus aethiops), Vero E6 cells (kidney epithelial cells, ATCC #C1008), read-out: 50% cytotoxic concentration (CC50)
Experimental: (§1) According to the present disclosure, Vero E6 cells, African green monkey (Cercopithecus aethiops) kidney epithelial cells (ATCC #C1008), were used for the antiviral screening. The cells were grown in Dulbecco's Modified Eagle Medium (DMEM) (Gibco, USA) with 10% fetal bovine serum (FBS) (Gibco, USA). For Vero cells (African green monkey epithelial cells), these cells were cultured in Minimum Essential Medium (MEM) (Gibco, USA) supplemented with 10% FBS and L-glutamine (Gibco, USA). All cultures were grown at 37° C. in 5% CO2 atmosphere and used in the experiments described in the following examples.
(§2) For Cytotoxicity Test by using MTT assay, the Vero E6 cells were cultured in 96-well plates with 10,000 cells per well and kept in an incubator for 24 hours. Then, the cells were incubated with the two active compounds from the B. rotunda extract, Panduratin A and Pinostrobin, in the incubator for 48 hours. When the given time was completed, 100 uL of […] MTT solvent was added and cells were incubated in the incubator for another 3 hours. MTT solvent was removed and 100 uL DMSO was added. Light absorbance was measured at 570 nm by a microplate reader, and 50% cytotoxicity concentration (CC50) was calculated for each replicate.

SARS-CoV-2 [2] = test: Antiviral activity test, immunofluorescence high-content imaging, post-infection treatment; format: cell-based
Vero E6 cells [3] = test: Cytotoxicity test by MTT assay; format: cell-based, African green monkey (Cercopithecus aethiops); conditions: 48 h, read-out: 50% cytotoxic concentration (CC50)
Experimental: as §1, §2

SARS-CoV-2 [4] = test: Plaque assay of viral output, post-infection treatment; format: cell-based; conditions: FIG. 6
Experimental: Furthermore, the viral output of SARS-CoV-2 in the present disclosure was reported as the infectious titers that were determined by plaque assay. In brief, Vero cell monolayer was seeded into 6-well plate 24 hours before the infection. The cells were inoculated with a serial dilution of the virus and incubated for viral adsorption for 1 hour at 37° C. Then, the cells were overlaid with 3 mL/well of overlay medium containing MEM supplemented with 5% FBS and 1% agarose. To allow plaque to develop, the culture was incubated at 37° C. in 5% CO2 for 3 days. After that, plaque phenotypes were visualized by staining with 0.33% Neutral Red solution (Sigma, USA) for 5 hrs. Plaque numbers were counted and calculated as plaque-forming unit (PFU) per milliliter (mL).

Vero E6 cells [5] = conditions: read-out: CC50, pre-entry phase, pre-entry condition
SARS-CoV-2 [6] = test: Anti-SARS-CoV-2 effect at the pre-entry phase, high-content imaging; format: cell-based; conditions: pre-incubated with virus 1 h, adsorption 2 h on Vero E6, washed, 48 h
SARS-CoV-2 [7] = format: cell-based
SARS-CoV-2 [8] = test: Plaque assay of viral output, pre-entry phase; format: cell-based; conditions: 50 μM, FIG. 9

SMILES | CC50 at 48 h [1] | IC50 (SARS-CoV-2 [2]; Severe acute respiratory syndrome coronavirus 2, Vero C1008, read-out: 50% inhibition concentration (IC50), given in ug/mL beside the uM value) | CC50 (Vero E6 cells [3]) | Inhibition of coronavirus replication in plaque assay (result in words) (SARS-CoV-2 [4]) | IC50 (SARS-CoV-2 [2]; Vero E6 cells infected 2 h, then treated 48 h (post-infection), read-out: 50% inhibition concentration (IC50)) | CC50 (Vero E6 cells [5]) | IC50 (SARS-CoV-2 [6]) | Virus titer (reduced in) (SARS-CoV-2 [7]; 72 h, 5 μM, vehicle 4.5 log PFU/mL) | Reduction of virus titers (result in words) (SARS-CoV-2 [7]; primary human alveolar cells, FIG. 10) | Suppression of the infectious virion production (SARS-CoV-2 [8]) | IC50 (SARS-CoV-2 [2]; Severe acute respiratory syndrome coronavirus 2, Vero C1008, read-out: 50% inhibition concentration (IC50)) | Virus titer (reduced in) (SARS-CoV-2 [7]; 72 h, 25 μM, vehicle 4.5 log PFU/mL) | Virus titer (SARS-CoV-2 [7]; 72 h, 50 μM, vehicle 4.5 log PFU/mL)
CCN(CCO)CCCC(C)Nc1ccnc2cc(Cl)ccc12 (centres unmarked) [Hydroxychloroquine, reference compound] | > 100 µM | 1.71 µg/mL |  |  |  |  |  |  |  |  |  |  | 
COc1cc(O)c(C(=O)[C@@H]2[C@H](CC=C(C)C)C(C)=CC[C@H]2c2ccccc2)c(O)c1 [Panduratin A] |  |  | 14.7 µM | significantly lower than that of Hydroxychloroquine | 0.81 µM | 43.5 µM | 5.3 µM | 3 log PFU/mL | reduced virus titers in a dose-dependent manner | absolutely suppressed |  |  | 
COc1cc(O)c2c(c1)O[C@H](c1ccccc1)CC2=O [Pinostrobin] | > 100 µM |  |  |  |  |  |  |  |  |  | 0.44 µM | 3 log PFU/mL | 2.0 log PFU/mL

Source: patent publication US20230201158A1, “PHARMACEUTICAL COMPOSITION CAPABLE OF INHIBITING REPLICATION OF CORONAVIRUS” (MAHIDOL UNIVERSITY, priority 2020, published 2023)
